According to patent publication US8546421B1, “Oncogenic-RAS-signal dependent lethal compounds” (The Trustees of Columbia University in the City of New York, priority 2007, dated 2013):

Tests used:
HL-60(TB) = experiment: cells; details: Homo sapiens; for GI50: HL-60; for CC50: HL-60, read-out: LC 50%
[1] = system: BJ-TERT/LT/ST/RAS^V12 cells; experiment: Counter screening with biologically active compounds; format: cell-based, human; details: for biologically active compounds that suppress compound-induced cell death: 36 bioactive compounds of Table 1, 24 hours, alamar blue
Procedure: Biologically active compounds listed in Table 1 were dissolved in BJ medium at 10× final concentration and aliquoted into eppendorf tubes. 100 μL of each 10× solution was transferred to column 1 to column 12 or column 13 to column 24 of a single row in a 384-well daughter plate. This plate was designated as ‘10× biologically active plate’. In order to prepare lethal compound solution, Erastin and compounds 3, 6, 27, and 36 were dissolved in BJ medium at a concentration of 100 μg/mL, 400 μg/mL, 400 μg/mL, 100 μg/mL, and 200 μg/mL, respectively. Empty daughter plates were filled with 50 μL BJ media except for columns 5 and 13 where 100 μL of each lethal solution was transferred. After lethal solution transfer, 2-fold dilution series across columns 5 to 12 and columns 13 to 20 was made by transferring 50 μL compound solution to the next column successively (8-point dilution series), with mixing. These five plates were each designated ‘10× lethal plate’. Five assay plates were prepared by seeding 4,000 BJ-TERT/LT/ST/RAS^V12 cells per well in 32 μL of growth media in black, clear bottom 384-well plates. Cells in assay plates were first treated with biologically active compounds by transferring 4 μL from the 10× inhibitor plate. Cells were then treated with each lethal compound in a 2-fold dilution series by transferring 4 μL solution from each 10× lethal plate. […] Percent growth inhibition (% GI) was calculated by the following formula using fluorescence intensity values: % GI=100*(1−(X−N)/([…])) wherein X is the fluorescent intensity value measured at 590 nm for cells treated with biologically active compound and lethal compound; N is the fluorescent intensity value measured at 590 nm for a control containing no cells (i.e. biologically active compound in growth media); and P is the fluorescent intensity value measured at 590 nm for a control containing no lethal compound (i.e., cells treated with biologically active compound). Counter Screening with Iron Chelators

UO-31 = experiment: NCI60 anti-cancer screening
NCI/ADR-RES = experiment: NCI60 anti-cancer screening
HOP-92 = experiment: NCI60 anti-cancer screening; details: for GI 100% / GI50: HOP-92; for GI 100%: Non-small cell lung carcinoma; for GI50 / CC50: Homo sapiens; for CC50: HOP-92, read-out: LC 50%
CCRF-CEM = experiment: NCI60 anti-cancer screening; details: for GI 100%: Leukemia
HT29 = experiment: NCI60 anti-cancer screening; details: for GI 100%: HT29, Colon Cancer; for GI50 / CC50: Homo sapiens; for GI50: HT-29; for CC50: HT-29, read-out: LC 50%
SW-620 = experiment: NCI60 anti-cancer screening
SF-539 = experiment: NCI60 anti-cancer screening
SK-MEL-28 = experiment: NCI60 anti-cancer screening
SK-MEL-2 = experiment: NCI60 anti-cancer screening
DU-145 = experiment: NCI60 anti-cancer screening
UACC-62 = experiment: NCI60 anti-cancer screening
T-47D = experiment: NCI60 anti-cancer screening
OVCAR-8 = experiment: NCI60 anti-cancer screening
M14 = experiment: NCI60 anti-cancer screening
OVCAR-4 = experiment: NCI60 anti-cancer screening
[2] = system: BJ-derived cell lines (BJ-TERT/LT/ST/RAS^V12 cells); experiment: Vi-Cell analysis (trypan blue exclusion); format: cell-based, human; details: 24 hours
Procedure: 200,000 cells were seeded in 6-well plates and treated with the indicated amount of 2-fold dilution series concentration of a candidate compound in 2 mL BJ growth medium. After 24 hours, cells were released with trypsin/EDTA, harvested in 1.1 mL growth medium, and transferred to a Vi-Cell (Beckman Coulter) disposable cup. After, trypan blue staining, 100 images of sample were taken and analysis of the images was carried out automatically by a Vi-Cell cell viability analyzer (Beckman Coulter).

NCI-H522 = experiment: NCI60 anti-cancer screening
NCI-H23 = experiment: NCI60 anti-cancer screening
OVCAR-3 = details: Ovarian Cancer

## COCCOC(=O)C1=C(C)NC2=C(C(=O)CC(c3ccc(Cl)cc3)C2)C1c1ccccc1F (centres unmarked) [Compound 3]
HL-60(TB)
  GI50: 9.8 µM
  CC50: > 10 µM
[1]
  biologically active compounds that suppress compound-induced cell death: anti-oxidants (GSH, BHT, Vit. E), iron chelators (L-mim, DFOM), and a protein synthesis inhibitor (cycloheximide)
[1]; U0126 10 uM
  effect of MEK1/2 inhibitor (U0126) on compound-induced cell death: completely blocked
UO-31; Homo sapiens, UO-31
  GI50: 6.82 µM
UO-31; Homo sapiens, UO-31, read-out: LC 50%
  CC50: > 10 µM
UO-31; UO-31, Renal Cancer
  GI 100%: >10 µM
NCI/ADR-RES; Breast Cancer
  GI 100%: >10 µM
NCI/ADR-RES; Homo sapiens
  GI50: 8.93 µM
NCI/ADR-RES; Homo sapiens, read-out: LC 50%
  CC50: > 10 µM
HOP-92
  GI 100%: >10 µM
  GI50: 6.18 µM
  CC50: > 10 µM
CCRF-CEM; Homo sapiens
  GI50: 7.95 µM
CCRF-CEM; Homo sapiens, read-out: LC 50%
  CC50: > 10 µM
CCRF-CEM
  GI 100%: >10 µM
HT29
  GI 100%: >10 µM
  GI50: 9.82 µM
  CC50: > 10 µM

## CCc1c(O)c2c(c(O)c1O[C@H]1O[C@@H](COC(C)=O)[C@H](OC(C)=O)[C@@H](CC(C)=O)[C@@H]1OC(C)=O)C(=O)C(O[C@@H]1O[C@H](COC(C)=O)[C@@H](OC(C)=O)[C@H](OC(C)=O)[C@H]1OC(C)=O)=C(O[C@@H]1O[C@H](COC(C)=O)[C@@H](OC(C)=O)[C@H](OC(C)=O)[C@H]1OC(C)=O)C2=O [Compound 6]
SW-620; Homo sapiens, SW-620
  GI50: 0.271 µM
SW-620; Homo sapiens, SW-620, read-out: LC 50%
  CC50: 3.9 µM
SW-620; SW-620, Colon Cancer
  GI 100%: 1.03 µM
SF-539; Homo sapiens, SF-539
  GI50: 2.32 µM
SF-539; Homo sapiens, SF-539, read-out: LC 50%
  CC50: 9.59 µM
SF-539; SF-539, CNS Cancer
  GI 100%: 4.71 µM
SK-MEL-28; Homo sapiens, SK-MEL-28
  GI50: 1.46 µM
SK-MEL-28; Homo sapiens, SK-MEL-28, read-out: LC 50%
  CC50: 6.63 µM
SK-MEL-28; SK-MEL-28, Melanoma
  GI 100%: 3.11 µM
SK-MEL-2; Homo sapiens, SK-MEL-2
  GI50: 2.32 µM
SK-MEL-2; Homo sapiens, SK-MEL-2, read-out: LC 50%
  CC50: > 10 µM
SK-MEL-2; SK-MEL-2, Melanoma
  GI 100%: 6.87 µM
DU-145; DU-145, Prostate Cancer
  GI 100%: >10 µM
DU-145; Homo sapiens, DU-145
  GI50: 5.28 µM
DU-145; Homo sapiens, DU-145, read-out: LC 50%
  CC50: > 10 µM
UACC-62; Homo sapiens, UACC-62
  GI50: 9.78 µM
UACC-62; Homo sapiens, UACC-62, read-out: LC 50%
  CC50: > 10 µM
UACC-62; UACC-62, Melanoma
  GI 100%: >10 µM
T-47D; Homo sapiens, T47D
  GI50: 4.53 µM
T-47D; Homo sapiens, T47D, read-out: LC 50%
  CC50: 9.35 µM
T-47D; T-47D, Breast Cancer
  GI 100%: 2.06 µM
HL-60(TB)
  GI50: 0.516 µM
  CC50: 8.25 µM
OVCAR-8; Homo sapiens, OVCAR-8
  GI50: 4.22 µM
OVCAR-8; Homo sapiens, OVCAR-8, read-out: LC 50%
  CC50: > 10 µM
OVCAR-8; OVCAR-8, Ovarian Cancer
  GI 100%: >10 µM
[1]
  biologically active compounds that suppress compound-induced cell death: only reduced glutathione (GSH) was able to inhibit
M14; Homo sapiens, M14
  GI50: 2.07 µM
M14; Homo sapiens, M14, read-out: LC 50%
  CC50: 9.28 µM
M14; M14, Melanoma
  GI 100%: 4.38 µM
OVCAR-4; Homo sapiens, OVCAR-4
  GI50: 5.71 µM
OVCAR-4; Homo sapiens, OVCAR-4, read-out: LC 50%
  CC50: > 10 µM
OVCAR-4; OVCAR-4, Ovarian Cancer
  GI 100%: >10 µM
[2]
  potency and selectivity by trypan blue exclusion (in words): confirmed the potency and selectivity
HOP-92
  GI 100%: 4.31 µM
  GI50: 1.48 µM
  CC50: > 10 µM
CCRF-CEM; Homo sapiens
  GI50: 0.115 µM
CCRF-CEM
  GI 100%: 0.422 µM
HT29
  GI 100%: >10 µM
  GI50: 3.32 µM
  CC50: > 10 µM
NCI-H522; Homo sapiens, NCI-H522
  GI50: 0.49 µM
NCI-H522; Homo sapiens, NCI-H522, read-out: LC 50%
  CC50: 5.12 µM
NCI-H522; NCI-H522, Non-small cell lung carcinoma
  GI 100%: 1.79 µM
NCI-H23; Homo sapiens, NCI-H23
  GI50: 4.17 µM
NCI-H23; Homo sapiens, NCI-H23, read-out: LC 50%
  CC50: > 10 µM
NCI-H23; NCI-H23, Non-small cell lung carcinoma
  GI 100%: >10 µM
OVCAR-3
  GI 100%: >10 µM
